Experimental data: patent US20230121086A1, “RORgT INHIBITOR, PREPARATION METHOD THEREOF AND USE THEREOF” (SUNSHINE LAKE PHARMA CO., LTD., priority 2020, published 2023)
Marks after values point to notes of the source that are not given here.

Columns and labels:
[1] = tested on: IMQ-induced mouse psoriasis model; experiment: IMQ-induced mouse psoriasis model, ear weight; format: in vivo, c57bl/6 mice; conditions: for Effect on the ear weight of mice compared with the model group: P<0.05
[2] = tested on: inflammatory factor IL-17; experiment: LPS-induced mouse blood inflammatory factor IL-17 model; format: in vivo, BALB/c mice
[3] = target: T1, RORγt (Homo sapiens, UniProt P51449); experiment: Fluorescence resonance energy transfer (FRET) test, inhibitory activity of RORγt; format: biochemical; conditions: FRET, B-RORγt LBD / Biotin-SRC1; read-out: IC50
T1 construct: […]
T1 sequence (P51449 269-508 limits assumed): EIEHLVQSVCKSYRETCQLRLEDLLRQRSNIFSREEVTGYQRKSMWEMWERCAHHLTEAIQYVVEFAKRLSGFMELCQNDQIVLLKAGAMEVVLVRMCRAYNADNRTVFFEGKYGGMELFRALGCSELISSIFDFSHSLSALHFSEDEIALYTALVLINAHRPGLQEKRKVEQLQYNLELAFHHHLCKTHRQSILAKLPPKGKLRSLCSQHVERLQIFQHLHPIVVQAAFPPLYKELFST

[4] = tested on: rat liver microsomes; experiment: Stability in rat liver microsomes; format: in vitro ADME; conditions: 0.5 mg protein/mL, 1.5 μM compound, 37° C., NADPH
[5] = tested on: inflammatory factor IL-17; experiment: IMQ-induced mouse psoriasis model, IL-17 in the ear; format: in vivo, c57bl/6 mice; conditions: for Inhibition rate (IL-17 in the ear) / IL-17 Concentration (pg/μg protein): 90 mg/kg; for IL-17 Concentration (pg/μg protein): ear homogenate supernatant, model group 29.78, normal group 0.00; for Effect on the secretion of IL-17 in the ear of mice compared with the model group: P<0.05
[6] = Pharmacokinetic evaluation in ICR mice; format: in vivo; conditions: mouse, plasma, po; for AUC(0-t) / Cmax / half-life: 5 mg/kg; for bioavailability: p.o. 5 mg/kg vs i.v. 1 mg/kg, read-out: Oral bioavailability (F)
[7] = Stability in human liver microsomes; format: in vitro ADME; conditions: for half-life at 1.5 μM: pH 7.4, 0.5 mg protein/mL, 1.5 μM compound, 37° C., NADPH, read-out: Human Half-life t1/2; for CLint scaled at 1.5 μM: pH 7.4, intrinsic hepatic clearance inferred from microsomal incubation, read-out: Human Clearance rate
[8] = Stability in rat liver microsomes; format: in vitro ADME; conditions: rat, liver microsomes, pH 7.4
[9] = 90 mg/kg, oral gavage, 10 days modeling, model group 28.12, normal group 13.03
[10] = Table 7, 30 mg/kg, plasma 4 hours after LPS, model group 174.69
[11] = Table 8, 15 mg/kg, plasma 4 hours after LPS, model group 81.33

Row | IC50 [3] | Rat Half-life t1/2 (min) [4] | AUC(0-t) [6] | Cmax [6] | half-life [6] | bioavailability [6] | half-life at 1.5 μM [7] | CLint scaled at 1.5 μM [7] | Structure (SMILES) | Inhibition rate % (ear weight) ([1]; 90 mg/kg, oral gavage) | Average ear weight (mg) [1, 9] | Effect on the ear weight of mice compared with the model group [1] | Effect on LPS-induced mouse blood inflammatory factor IL-17 [2] | Inhibition rate % ([2]; Table 7, 30 mg/kg) | IL-17 (pg/ml) [2, 10] | Inhibition rate (IL-17 in the ear) [5] | IL-17 Concentration (pg/μg protein) [5] | Effect on the secretion of IL-17 in the ear of mice compared with the model group [5] | Inhibition rate % ([2]; Table 8, 15 mg/kg) | other results
1 | 11 nM | Not metabolized | 47.2 µM·h | 3.33 µM | 792 min | 91% |  |  | CCS(=O)(=O)c1ccc([C@H](CC#N)NC(=O)c2ccc(N3CC(Oc4ccc(OC(F)(F)F)cc4)C[C@H]3COC(F)F)cc2)cc1 (stereo in doubt) [Example 64, N-((S)-2-cyano-1-(4-(ethylsulfonyl)phenyl)ethyl)-4-((2S,4S)-2-((difluoromethoxy)methyl)-4-(4-(trifluoromethoxy)phenoxy)pyrrolidin-1-yl)benzamide] | 22% | 24.84* mg | significantly reduce | significantly reduce | 65% | 58.48 ** pg/ml | 72.47% | 8.20 ** pg/μg protein | significantly reduce |  | 
2 |  | Not metabolized | 78 µM·h | 7 µM | 474 min | 82% | 80.5 min | 21.6 mL/min/kg | CCS(=O)(=O)c1ccc([C@H](CC#N)NC(=O)c2ccc(N3CC(Oc4ccc(C(F)(F)F)cn4)C[C@H]3COC(F)F)cc2)cc1 (stereo in doubt) [Example 65, N-((S)-2-cyano-1-(4-(ethylsulfonyl)phenyl)ethyl)-4-((2S,4S)-2-((difluoromethoxy)methyl)-4-((5-(trifluoromethyl)pyridine-2-yl)oxy)pyrrolidin-1-yl)benzamide] |  |  |  | significantly reduce | 63% | 61.71 ** pg/ml |  |  |  |  | 
3 | 9 nM | Not metabolized | 37 µM·h | 4.8 µM | 216 min | 80% | 239 min | 7.3 mL/min/kg | CCS(=O)(=O)c1ccc([C@H](CC#N)NC(=O)c2ccc(N3C[C@@H](Oc4ccc(OC(F)F)cc4)C[C@H]3COC(F)F)cc2)cc1 [Example 22, N-((S)-2-cyano-1-(4-(ethylsulfonyl)phenyl)ethyl)-4-((2S,4S)-2-((difluoromethoxy)methyl)-4-(4-(difluoromethoxy)phenoxy)pyrrolidin-1-yl)benzamide] | 2% |  |  | a certain tendency to inhibit |  |  | 40.08% | 17.85 * pg/μg protein | significantly reduce | 10.55% | Average ear weight [1, 9]: 28.12 mg; IL-17 [2, 11]: 72.12 pg/mL
4 | 10 nM |  | 23.5 µM·h | 2.4 µM | 666 min | 66% | 210 min | 8.3 mL/min/kg | CCS(=O)(=O)c1ccc([C@H](CC#N)NC(=O)c2ccc(N3C[C@@H](Oc4ccc(C(F)(F)F)cc4)C[C@H]3COC(F)F)cc2)cc1 [Example 47, N—((S)-2-cyano-1-(4-(ethylsulfonyl)phenyl)ethyl)-4-((2S,4S)-2-((difluoromethoxy)methyl)-4-(4-(trifluoromethyl)phenoxy)pyrrolidin-1-yl)benzamide] | 19% | 25.20* mg | significantly reduce | significantly reduce | 51% | 83.18 * pg/ml | 55.38% | 13.29 ** pg/μg protein | significantly reduce | 28.21% | Inhibition rate % ([2]; Table 6, 15 mg/kg): 25.22%; IL-17 (pg/ml) ([2]; Table 6, 15 mg/kg, plasma 4 hours after LPS, model group 141.35): 104.98 * pg/ml; IL-17 (pg/ml) [2, 11]: 56.69 ** pg/ml; half-life at 1.5 μM ([8]; 0.5 mg protein/mL, 1.5 μM compound, 37° C., NADPH, read-out: Rat Half-life t1/2): 1340 min; CLint scaled at 1.5 μM ([8]; intrinsic hepatic clearance inferred from microsomal incubation, read-out: Rat Clearance rate): 1.9 mL/min/kg
